Assays:
L1210/0 = experiment: antitumor activity in mice implanted intraperitoneally with L1210 (Table II); type: in vivo; set-up: Mean: unit not given beside the values; conditions: d 1, 5, 9, 13
Method: The optimal dose is 15 mg/kg giving a %ILS of 51% versus control mice implanted with L1210 but not treated with the drug.

L1210/PDD = experiment: antitumor activity in mice implanted with a tumor cell line resistant to cisDDP (Table III); type: in vivo; conditions: q4d × 4

N.N.[Cl][Pt][Cl] [CisDDP, cis-diamminedichloroplatinum (II)]
ILS (L1210/0; first L1210/0 group, dose 3): 34%
Mean (L1210/0; first L1210/0 group, dose 3): 11.9
ILS (L1210/0; second L1210/0 group, dose 2.0): 26%
Mean (L1210/0; second L1210/0 group, dose 2.0): 11.6
ILS (L1210/0; second L1210/0 group, dose 3.0): 51%
Mean (L1210/0; second L1210/0 group, dose 3.0): 13.9
ILS (L1210/0; second L1210/0 group, dose 4.5): 113%
Mean (L1210/0; second L1210/0 group, dose 4.5): 19.6
ILS (L1210/PDD; dose 2.0): 0%
Mean (L1210/PDD; dose 2.0): 11.0
ILS (L1210/PDD; dose 3.0): 0%
Mean (L1210/PDD; dose 3.0): 10.8
ILS (L1210/PDD; dose 4.5): 0%
Mean (L1210/PDD; dose 4.5): 11.0

From patent US4843161A, “Platinum-intercalative complexes for the treatment of cancer” (Massachusetts Institute of Technology, priority 1984, dated 1989)
